Measurements reported in patent publication US10835537B2, “Combination therapies for treatment of cancer” (Sumitomo Dainippon Pharma Oncology, Inc., priority 2015, dated 2020).

Tests used:
MCL-1 = MCL-1 expression by western blotting in MV4-11 cells; assay type: cell-based
Method: An AML cell line, MV-4-11, expresses MCL-1. MCL-1 is a key anti-apoptotic protein in MV-4-11 cells. Alvocidib, a CDK9 inhibitor, lowers the expression of MCL-1, which is already well documented in the literature. Alvocidib down-regulates MCL-1 in a dose dependent manner (FIG. 1A). The dose dependence is observed by monitoring the relative expression of MCL-1 compared to β-actin when cells are dosed with alvocidib at concentrations of 0-8 μM. MV4-11 cells were treated with Alvocidib for 16 hrs in vitro, Following treatment, cells were harvested and prepared using standard western blotting technique for immuno-detection of MCL-1 and β-actin expression.
In addition, alvocidib also down-regulates MCL-1 in a time-dependent manner (FIG. 1B). The time dependence is observed by monitoring the relative expression of MCL-1 compared top-actin over time. The relative expression of MCL-1 was measured at 0.5-48 hour time points after dosing with 80 nM of alvocidib.
MV4-11 cells were treated with 80 nM Alvocidib in vitro for the times indicated. Following treatment, cells were harvested and prepared using standard western blotting technique for immunodetection of MCL-1 and β-actin expression.

MV 4-11 cells = experiment: Cell viability, Cell titer-glo assay; assay type: cell-based; details: for EC50: Homo sapiens, MV4-11, MV 4-11 cells, wash
Method: MV 4-11 cells were dosed first with alvocidib (80 nM) or DMSO for 24 hours followed by a wash step. Following the wash step, the cells were dosed with azacitidine (30 μM to 0.001 μM) for an additional 72 hours, Measurement of cell viability was taken at 96 hours from the initial dose (72 hours after the wash step) and normalized to data collected for cells dosed with alvocidib only. Cell viability was then assessed in a Cell titer-glo assay, according to manufacturer protocol. Cell viability was then plotted against concentration on a logarithmic scale (FIG. 2).
FIGS. 5A and 5B present data from combination treatment of Alvocidib and decitabine in MV4-11 cells. MV4-11 cells were first treated for 96 hours with alvocidib+decitabine according to the general procedures of Example 2 at the concentrations indicated in FIG. 5A. […] Here, a change of nearly 10-fold in the IC50 (μM) of decitabine with the addition of alvocidib (100 nM) was observed when alvocidib was administered prior to decitabine.

## CN1CC[C@H](c2c(O)cc(O)c3c(=O)cc(-c4ccccc4Cl)oc23)[C@H](O)C1 [Alvocidib]
MCL-1; 80 nM, 1 hour post-treatment
  MCL-1 expression compared to β-actin: reduced MCL-1 expression
MCL-1; 80 nM, 16 hrs
  MCL-1 expression compared to β-actin: nearly completely blocked
MCL-1; 80 nM, up to 48 hours following treatment
  MCL-1 expression compared to β-actin: inhibition of expression was maintained
MCL-1; 0.1 μM, 16 hrs
  MCL-1 expression compared to β-actin: reduced MCL-1 expression
MCL-1; 1 μM, 16 hrs
  MCL-1 expression compared to β-actin: completely blocked expression

## Nc1ncn([C@H]2C[C@H](O)[C@@H](CO)O2)c(=O)n1 [decitabine]
MV 4-11 cells; MV4-11 cells, alvocidib 100 nM 24 hours pre-treatment, then decitabine 72 hours
  Change in IC50 of decitabine with the addition of alvocidib: ~10 fold

## Nc1ncn([C@@H]2O[C@H](CO)[C@@H](O)[C@H]2O)c(=O)n1 [azacitidine]
MV 4-11 cells; DMSO 24 hours, then azacitidine only 72 hours
  EC50: 1780 nM
MV 4-11 cells; alvocidib 80 nM 24 hours, then azacitidine 72 hours, normalized to alvocidib only
  EC50: 641 nM
